Measurements reported in the supplement of paper PMC10011410.
± gives the standard deviation of the averaged measurements.

Columns and labels:
U-2 OS [1] = assay: intracellular GSH:GSSG ratio (calculated); higher = more reduced glutathione pool; conditions: 24 h
Description: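 Intracellular glutathione in U-2 OS cells after 24 h compound treatment at 5, 10 and 20 uM (some at 40 and 80 uM). Total glutathione and GSSG were measured with the GSH/GSSG-Glo kit, and the GSH:GSSG ratio was calculated. Mean of five technical replicate plates.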

U-2 OS [2] = assay: relative cell count vs DMSO (cell painting) (fraction of DMSO control); higher = more cells remaining (less cytotoxic); conditions: 24 h
How it was run: (§1)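 Cell painting used U-2 OS cells at about 1,500 per well in 384-well plates, treated by pin tool for 24 h at 37 °C, usually at six 2-fold concentrations from 20 μM to 625 nM. Cells were stained with MitoTracker, concanavalin A, phalloidin, wheat germ agglutinin, Hoechst and SYTO 14 and imaged on an Opera Phenix. Features were extracted with CellProfiler and normalized to DMSO cells on the same plate. The activity score is the Mahalanobis distance from DMSO wells; cell count is relative to DMSO wells. Values are means of four replicate plates.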

U-2 OS [3] = assay: cell viability (CellTiter-Glo) relative to DMSO (% of control); higher = more viable; conditions: 24 h
Description: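 Cell viability of U-2 OS cells by CellTiter-Glo after 24 h compound treatment at 5, 10 and 20 uM (some at 40 and 80 uM), measured in parallel with the glutathione assay, as percent of DMSO control. Five technical replicate plates, averaged.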

U-2 OS [4] = assay: total intracellular glutathione (GSH + GSSG) relative to DMSO (% of control); higher = more glutathione; conditions: 24 h
Description: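 Total intracellular glutathione (GSH + GSSG) in U-2 OS cells by GSH/GSSG-Glo after 24 h compound treatment at 5, 10 and 20 uM (some at 40 and 80 uM), as percent of DMSO control. Five technical replicate plates, averaged.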

U-2 OS [5] = assay: cell painting activity score (Mahalanobis distance from DMSO wells); higher = stronger morphological phenotype; conditions: 24 h
How it was run: as §1

U-2 OS [6] = assay: AUC of culture confluence over time (live-cell imaging) (AUC (confluence % x time)); higher = more confluent culture (less growth inhibition)
How it was run: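 Live-cell imaging tracked confluence of U-2 OS cells grown in F-12K medium plus 10% FBS. After seeding at 750 cells per well in 384-well plates, cells received compounds by pin tool 24 h later, mostly at 20, 10 and 5 μM, with 0.2% DMSO. Plates stayed at 37 °C and were imaged every 4 h for up to 60 h. Each value is the area under the confluence-versus-time curve.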

O=C1/C(=C/c2ccc(O)c(Br)c2)CCC/C1=C\c1ccc(O)c(Br)c1
intracellular GSH:GSSG ratio (U-2 OS [1]; 5 µM): 15.5
intracellular GSH:GSSG ratio (U-2 OS [1]; 10 µM): 14
intracellular GSH:GSSG ratio (U-2 OS [1]; 20 µM): 11.9
intracellular GSH:GSSG ratio (U-2 OS [1]; 40 µM): 9.48
intracellular GSH:GSSG ratio (U-2 OS [1]; 80 µM): 3.73
relative cell count (U-2 OS [2]; 0.625 µM): 1.01
relative cell count (U-2 OS [2]; 1.25 µM): 1.02
relative cell count (U-2 OS [2]; 2.5 µM): 0.982
relative cell count (U-2 OS [2]; 5 µM): 0.904
relative cell count (U-2 OS [2]; 10 µM): 0.96
relative cell count (U-2 OS [2]; 20 µM): 0.55
cell viability (U-2 OS [3]; 5 µM): 100 ± 4.4
cell viability (U-2 OS [3]; 10 µM): 95.1 ± 4.6
cell viability (U-2 OS [3]; 20 µM): 94.1 ± 5.6
cell viability (U-2 OS [3]; 40 µM): 88.5 ± 5.9
cell viability (U-2 OS [3]; 80 µM): 11.9 ± 2.3
total intracellular glutathione (U-2 OS [4]; 5 µM): 113 ± 2.6
total intracellular glutathione (U-2 OS [4]; 10 µM): 126 ± 4.8
total intracellular glutathione (U-2 OS [4]; 20 µM): 120 ± 2.2
total intracellular glutathione (U-2 OS [4]; 40 µM): 119 ± 3.6
total intracellular glutathione (U-2 OS [4]; 80 µM): 13.4 ± 2.5
cell painting activity score (U-2 OS [5]; 0.625 µM): 4.8
cell painting activity score (U-2 OS [5]; 1.25 µM): 5.76
cell painting activity score (U-2 OS [5]; 2.5 µM): 5.97
cell painting activity score (U-2 OS [5]; 5 µM): 8.32
cell painting activity score (U-2 OS [5]; 10 µM): 9.31
cell painting activity score (U-2 OS [5]; 20 µM): 12.2
AUC of culture confluence over time (U-2 OS [6]; 5 µM): 49.5

O=C1C=CC(=O)N1c1ccccc1
intracellular GSH:GSSG ratio (U-2 OS [1]; 5 µM): 20.1
intracellular GSH:GSSG ratio (U-2 OS [1]; 10 µM): 4.06
intracellular GSH:GSSG ratio (U-2 OS [1]; 20 µM): 17.8
relative cell count (U-2 OS [2]; 0.625 µM): 1.02
relative cell count (U-2 OS [2]; 1.25 µM): 1.06
relative cell count (U-2 OS [2]; 2.5 µM): 0.8
relative cell count (U-2 OS [2]; 5 µM): 0.602
relative cell count (U-2 OS [2]; 10 µM): 0.224
relative cell count (U-2 OS [2]; 20 µM): 0.317
cell viability (U-2 OS [3]; 5 µM): 81.7 ± 12
cell viability (U-2 OS [3]; 10 µM): 14.3 ± 4.6
cell viability (U-2 OS [3]; 20 µM): 4.32 ± 3.1
total intracellular glutathione (U-2 OS [4]; 5 µM): 114 ± 9.5
total intracellular glutathione (U-2 OS [4]; 10 µM): 23.6 ± 7.2
total intracellular glutathione (U-2 OS [4]; 20 µM): 14.3 ± 6.1
cell painting activity score (U-2 OS [5]; 0.625 µM): 4.85
cell painting activity score (U-2 OS [5]; 1.25 µM): 4.24
cell painting activity score (U-2 OS [5]; 2.5 µM): 9.29
cell painting activity score (U-2 OS [5]; 5 µM): 14.7
cell painting activity score (U-2 OS [5]; 10 µM): 19.6
cell painting activity score (U-2 OS [5]; 20 µM): 16.3
AUC of culture confluence over time (U-2 OS [6]; 5 µM): 13.1
AUC of culture confluence over time (U-2 OS [6]; 10 µM): 14.2
AUC of culture confluence over time (U-2 OS [6]; 20 µM): 13.5

Cl.Cl.O=C(O)Cn1nnc(-c2ccc(CN(CCCCOc3ccc(CN4CCCC4)cc3)CCc3ccccc3)cc2)n1
intracellular GSH:GSSG ratio (U-2 OS [1]; 5 µM): 20.2
intracellular GSH:GSSG ratio (U-2 OS [1]; 10 µM): 19.8
intracellular GSH:GSSG ratio (U-2 OS [1]; 20 µM): 15.4
intracellular GSH:GSSG ratio (U-2 OS [1]; 40 µM): 14.3
intracellular GSH:GSSG ratio (U-2 OS [1]; 80 µM): 14
relative cell count (U-2 OS [2]; 0.625 µM): 1.2
relative cell count (U-2 OS [2]; 1.25 µM): 1.1
relative cell count (U-2 OS [2]; 2.5 µM): 1.12
relative cell count (U-2 OS [2]; 5 µM): 1.13
relative cell count (U-2 OS [2]; 10 µM): 1.14
relative cell count (U-2 OS [2]; 20 µM): 1.01
relative cell count (U-2 OS [2]; 40 µM): 0.376
relative cell count (U-2 OS [2]; 80 µM): 0.0195
cell viability (U-2 OS [3]; 5 µM): 96.5 ± 5.3
cell viability (U-2 OS [3]; 10 µM): 100 ± 3.5
cell viability (U-2 OS [3]; 20 µM): 98.8 ± 6.4
cell viability (U-2 OS [3]; 40 µM): 88.9 ± 11
cell viability (U-2 OS [3]; 80 µM): 30.9 ± 15
total intracellular glutathione (U-2 OS [4]; 5 µM): 99.4 ± 2.1
total intracellular glutathione (U-2 OS [4]; 10 µM): 97 ± 3.3
total intracellular glutathione (U-2 OS [4]; 20 µM): 95.5 ± 4.5
total intracellular glutathione (U-2 OS [4]; 40 µM): 96.7 ± 2.5
total intracellular glutathione (U-2 OS [4]; 80 µM): 72.7 ± 5.7
cell painting activity score (U-2 OS [5]; 0.625 µM): 4.83
cell painting activity score (U-2 OS [5]; 1.25 µM): 5.3
cell painting activity score (U-2 OS [5]; 2.5 µM): 7.08
cell painting activity score (U-2 OS [5]; 5 µM): 6.29
cell painting activity score (U-2 OS [5]; 10 µM): 6.41
cell painting activity score (U-2 OS [5]; 20 µM): 11.1
cell painting activity score (U-2 OS [5]; 40 µM): 11.5
cell painting activity score (U-2 OS [5]; 80 µM): 32
AUC of culture confluence over time (U-2 OS [6]; 5 µM): 48.1
AUC of culture confluence over time (U-2 OS [6]; 10 µM): 49
AUC of culture confluence over time (U-2 OS [6]; 20 µM): 47.5
AUC of culture confluence over time (U-2 OS [6]; 40 µM): 19.9
AUC of culture confluence over time (U-2 OS [6]; 80 µM): 12.3
